Test results reported in patent US6403647B1, “Pulsed administration of compositions for the treatment of blood disorders” (priority 1996, dated 2002).

How the values were obtained:
[1] = system: γ globin mRNA; details: continuous intravenous administration; cited from earlier work
[2] = system: Friend leukemia cells; details: cultured Friend leukemia cells; cited from earlier work
[3] = Continuous butyrate therapy in a child with beta thalassemia; assay type: in vivo, human
Text: Treatment period, the ten month duration of butyrate therapy, is shown between the vertical lines.

[4] = Weekly then pulse butyrate in a patient with β° thalassemia; assay type: in vivo, human
Procedure: A plateau or even a decline in hematologic response has been commonly observed when butyrate therapy is given continuously. This is illustrated in a patient with β° thalassemia, who responded to weekly butyrate treatment with an increase in fetal globin synthesis and improved globin chain balance from 0.5 to 0.85 non-α to α-globin chain ratios (FIG. 8). A 3-fold increase in γ globin mRNA was detected 24-36 hours after therapy. A 1-1.5 gram/dl rise in total hemoglobin followed the increase in […] synthesis and mRNA, but total Hgb then plateaued and even declined slightly (solid line). A decline in ferritin is also frequently observed (lower panel), even though the patient received single daily supplements.
When therapy was decreased to shorter pulses for 2-3 days on alternate weeks, total hemoglobin rose another 2 grams/dl. Increased iron supplements were required to support the active erythropoiesis, despite the presence of iron overload.
The therapeutic rise in total hemoglobin plateaued or declined on weekly therapy. With a change to pulse therapy, shown by the curved arrow, there was a further rise in total Hgb to 9.6 gm/dl, a level that no longer requires transfusions.
A three fold increase in γ globin mRNA was detected 24 to 36 hours after therapy.
A 1.0 to 1.5 gram per deciliter rise in total hemoglobin followed the increase in γ globin mRNA synthesis for 30 to 50 days, but total Hgb plateaued and even declined slightly (FIG. 8). A decline in ferritin was also frequently observed (FIG. 10) even though the patient received single daily supplements.
Increased iron supplements were required to support active erythropoiesis, despite the iron overload (FIG. 10).

[5] = Globin chain synthesis at varied butyrate infusion rates in patients; assay type: in vivo, human; details: infusion at 150 mg per kg per hour; baseline 0.6
Procedure: Infusion rates were varied between 20 to 150 mg per kg per hour in several patients who have large proportions of circulating nucleated erythroblasts. Globin chain synthesis was assayed at different time points before and following drug infusions.

[6] = Apoptosis (fragmented DNA stain) of circulating erythroblasts, Hb-E beta thalassemia patient; assay type: in vivo, human
Text: Peripheral blood from a patient with Hb-E beta thalassemia has 1200 NRBCs per 100 white blood cells which allows for rapid monitoring for apoptosis. […] A plateau or even a decline in hematologic response has been observed when butyrate therapy is given continuously.

[7] = Platelet counts in baboon with pulse administration; assay type: in vivo; details: increased from 240,000
[8] = system: fetal globin; assay: Fetal globin production in erythroid progenitor colonies (Bfu-e), sickle cell anemia patient; assay type: cell-based, human; details: controls 48% of non-α globin
[9] = system: Bfu-e; assay: Erythroid colony (Bfu-e) proliferation with maximal growth factors, normal subject; assay type: cell-based, human; details: 0.2-0.5 mM where given
Text: Erythroid cells were obtained, as described in Example 1, from a normal subject and cultured on semi-solid medium in the presence of a maximal amount of erythroid growth factors including IL-6, GM-CSF, SCF and EPO. Erythroid proliferation in the presence of these factors is expected to be maximal and, therefore, any increases observed would be significant.

[10] = system: human fetal liver cells; assay: Erythroid progenitor colony proliferation, fetal liver cells; assay type: cell-based; details: 0.2 mM, maximal growth factors, p<0.025
Procedure: In a third experiment, human fetal liver cells were also tested. As fetal cells are known not to respond to the presence of the growth factors, any increases observed are highly significant. Erythroid progenitor cultures were established from fetal liver and plated with maximal amounts of growth factors. To these plates were added; lane 1, 2-(4′-methoxyphenoxy) propionic acid; lane 2, phenoxyacetic acid; and lane 3, α-methylhydrocinnamic acid; all at a concentration of 0.2 mM.

[11] = system: fetal globin; assay: Proportion of fetal globin-expressing cells in culture, fluorescent antibodies, sickle cell patient; assay type: cell-based, human; details: 14 days, controls 40.7%
Procedure: In a fourth experiment, erythroid cells were obtained from a sickle cell patient. These cells were established in culture both with and without test a variety of test compounds. Cultures were incubated for 14 days in methylcellulose media with maximal concentrations of all hematopoietic growth factors (GM-CSF, SCF, EPO). Colonies were analyzed using fluorescent monoclonal antibodies against fetal globin to determine the proportion of erythroid cells that expressed fetal globin.

[12] = Total hemoglobin in phlebotomized anemic baboons, continuous versus pulse therapy; assay type: in vivo, baboon
Procedure: Therapy was administered to anemic baboons who were being phlebotomized 5-10 ml/kg of blood per day on a continuous basis. EPO was administered daily at 300 U/kg/dose. Arginine butyrate was administered daily at 700 mg/kg/day for 5 days and phenoxyacetic acid at 500 mg/kg/day daily over 8 hours and at 1000 mg/kg/day for 24 hours/day daily for five days each. […] With continuous arginine butyrate treatment, hemoglobin remained essentially stable at 6.7 to 6.9 gram/dl. With continuous treatment with phenoxyacetic acid, hemoglobin levels remained stable at 7.0 gram/dl to 6.9 gram/dl during 8 hour therapy and declined from 6.8 to 4.5 when the drug was given for 24 hours per day for 5 days.

[13] = system: system A transport of amino acids; assay: Uptake of 3H-methyl-aminoisobutyric acid (MeAIB) into erythroblasts; assay type: cell-based; details: for amino acid (MeAIB) uptake / transport: 2.0 mM, relative to untreated fetal liver erythroid cells
Procedure: Erythroblasts were tested for alterations in uptake of radio-labelled amino acid (^3H-methyl-aminoisobutyric acid; MeAIB) in the presence of AB (arginine butyrate), AMHCA (α-methylhydrocinnamic acid), PAA (phenoxyacetic acid), and IBT (isobutyramide), each at 2.0 mM.

[14] = DNA fragmentation assays (cell viability); assay type: cell-based; details: pulsed administration
Text: Normal cell viability, the viability of an untransformed or uninfected cell, can be determined from analyzing the effects of the composition on one or more biological processes of the cell. Detrimental interference with one or more of these cellular processes becomes significant when the process becomes abnormal. Examples of quantitatable and qualifiable biological processes include the processes of cell division, protein synthesis, nucleic acid (DNA or RNA) synthesis, nucleic acid (principally DNA) fragmentation and apoptosis. Others processes include specific enzyme activities, the activities of the cellular transportation systems such as the transportation of amino acids by system A (neutral), system B (acidic) or system C (basic), and the expression of a cell surface protein. […] Abnormal cell division, for example, can be mitosis which occurs too rapidly, as in a malignancy, or unstably, resulting in programmed cell death or apoptosis, detected by increased DNA degradation. The determination of abnormal cell viability can be made on comparison with untreated control cells. Compositions preferably increase normal cell viability. Increased cell viability can be determined by those of ordinary skill in the art using, for example, DNA fragmentation analysis. […] Determinations of increased or decreased viability can also be concluded from an analysis of the results of multiple different assays. Where multiple tests provide conflicting results, accurate conclusions can still be drawn by those of ordinary skill based upon the cell type, the correctness or correlation of the tests with actual conditions and the type of composition.
Patients with blood disorders are typically quite infirm with, for example, iron damaged organs and systems. Most treatments further tax the patient's already frail health in an effort to combat the disorder.

[15] = system: K562 human erythroleukemia cells; details: cited from earlier work

Nc1ncn([C@@H]2O[C@H](CO)[C@@H](O)[C@H]2O)c(=O)n1 [AZA, 5-azacytidine]
increase in γ globin mRNA of bone marrow cells [1]: five- to seven-fold

CC(=O)O [acetate]
hemoglobin synthesis [2]: induced hemoglobin synthesis

CCCC(=O)O [butyrate]
total hemoglobin ([3]; after 4 months of continuous weekly treatment): 7.5-8.4 gm/dl | total hemoglobin, peak ([3]; continuous therapy, baseline 5.6 grams/dl): 9.9 gm/dl | total hemoglobin, plateau ([3]; continuous therapy, for 2 months after peak): 8.0-8.8 gm/dl | total Hgb reached ([4]; after change to pulse therapy): 9.6 gm/dl | non-α to α-globin chain ratios ([4]; weekly butyrate, improved from 0.5): 0.85 | rise in total hemoglobin ([4]; weekly butyrate, then plateaued): 1-1.5 gram/dl | non-α globin to α globin ratio [5]: 0.77 | apoptosis, red stain of fragmented DNA ([6]; after high-dose): red staining of most cells | apoptosis, red stain of fragmented DNA ([6]; after low-dose pulse therapy): no red-staining erythroblasts are observed

O=C(O)CCc1ccccc1 [dihydrocinnamic acid]
platelet counts after treatment [7]: 767,000

CC(C)C(=O)O [isobutyrate]
hemoglobin synthesis [2]: induced hemoglobin synthesis

O=C(O)COc1ccccc1 [phenoxyacetic acid]
increase in fetal globin over controls [8]: 34% | Bfu-e growth [9]: further increase Bfu-e growth | proliferation of colonies [10]: increased proliferation of colonies | Increase in γ-Globin Expressing Cells ([11]; 0.2 mM): 54.6% | total hemoglobin after treatment ([12]; continuous, 500 mg/kg/day daily over 8 hours, from 7.0): 6.9 gram/dl | total hemoglobin after treatment ([12]; continuous, 1000 mg/kg/day, 24 hours per day for 5 days, declined from 6.8): 4.5 | total hemoglobin after treatment ([12]; pulse, 2 oral doses per week, 500 mg/kg on days 1 and 4, in one week, from 6.9): 7.6 gram/dl | system A transport of amino acids [13]: do not significantly alter system A transport of amino acids | amino acid (MeAIB) uptake / transport [13]: did not inhibit amino acid transport | DNA fragmentation in fragmentation assays [14]: reduce DNA fragmentation

CCC(=O)O [propionate]
hemoglobin synthesis [2]: induced hemoglobin synthesis | ability to increase fetal globin expression [15]: most effective

CC(Cc1ccccc1)C(=O)O (stereo not drawn) [α-methylhydrocinnamic acid]
increase in fetal globin over controls [8]: 18% | Bfu-e growth [9]: further increase Bfu-e growth | proliferation of colonies [10]: increased proliferation of colonies | Increase in γ-Globin Expressing Cells ([11]; concentration not given): 64.4% | system A transport of amino acids [13]: do not significantly alter system A transport of amino acids | amino acid (MeAIB) uptake / transport [13]: did not inhibit amino acid transport
